Measured values published in patent publication US12059429B2, “Hornerin: a novel non-VEGF mediated angiogenic protein expressed in both human and mouse angiogenic endothelial cells and human pancreatic cancer cells” (University of Virginia Patent Foundation, priority 2018, dated 2024).

Experiments:
Type in all cases: in vivo, mouse
tumor vessels = test: Tumor vessel parameters in L3.6pl tumor sections (CD34, ACTA2, RAVE analysis)
Experimental: Following completion of the treatment schedule, the mice were killed, cardiac perfused, and the tumors were excised and fixed in formalin overnight. The tumors were paraffin embedded and cut into 5 (thin) or 50 μm (thick) sections. Tumor vessel parameters were evaluated in the following number of tumors for each treatment cohort: (Scr siRNA/ctrl., N=10; Hrnr siRNA/ctrl., N=10; Scr siRNA/AV-951, N=4; Hrnr siRNA/AV-951, N=4).
Tumor sections were deparaffinized, rehydrated, heated in antigen retrieval solution (Vector), blocked for 30 minutes in blocking buffer, and incubated with anti-CD34 antibody (Abcam, ab8158, clone MEC14.7; 1:100) in blocking buffer overnight at 4° C. The sections were then incubated with goat anti-rat FITC secondary antibody (Abcam, ab6840; 1:100) in blocking buffer prior to mounting with Prolong Gold Antifade reagent (Invitrogen). Anti-actin, α-smooth muscle Cy3 antibody (Sigma, C6198, clone 1A4; 1:200) was added to the primary antibody solution if assaying for alpha-smooth muscle actin. To compare hornerin expression in vessels and tumor tissue treated with Hrnr siRNA and Scr siRNA, thin paraffin sections were deparaffinized and stained with anti-CD34 and anti-hornerin antibodies described. Images were collected using a Nikon TE 2000-E2 microscope (Nikon Instruments) equipped with a Melles Griot Argon Laser System (Melles Griot, Carlsbad, CA, USA) and a Nikon D-Eclipse C1 confocal attachment and analyzed by Measurement Tool in Image J. To measure the relative hornerin expression in tumor vessels, three vessel segments per image were isolated and their mean intensity and area were measured and recorded. A weighted mean intensity was calculated to correct for differences in selected area. To measure the relative hornerin expression in tumor tissue, the mean intensity from three square sections (75×75 pixel) of tumor tissue per image was measured and recorded.
Vessel parameters were measured using RAVE software (Seaman et al., 2011). For detection of proliferation and apoptosis, the sections were incubated with the primary antibodies anti-Ki67 (Abcam, ab15580; 1:200) or anti-cleaved caspase 3 (Cell Signaling, 9661; 1:200), respectively, overnight at 4° C. followed by incubation with anti-rabbit AF594 (Abcam, 150080; 1:200).

tumor vascularity = test: DCE-MRI and Ktrans measurement of L3.6pl tumors
Experimental: To assess the in vivo function of tumor vascularity, DCE-MRI was performed on a 7.0 T Clinscan small animal imaging system (Bruker, Ettlingen, Germany) using a 30 mm inner-diameter birdcage radiofrequency coil. Mice (N=7) were imaged prior to treating tumors with Hrnr and Scr siRNA and again 6 days after treatment. Mice treated with the VEGFR inhibitor AV-951 (N=5) were image pre-siRNA treatment and 6 days posttreatment. Mice were anesthetized with 1.25% isoflurane anesthesia, which was maintained during imaging. Respiration and ECG were monitored during imaging using an MRI-compatible system (SA Instruments, Stony Brook, NY, USA). An indwelling tail vein catheter was established for administration of the gadolinium contrast agent Gd-DTPA, which is required in DCE imaging. Mice were placed supine in the imaging system, and body temperature was maintained at 36° C.±1° C. using circulating, temperature controlled water. Tumors were localized using a spin-echo imaging sequence, and an imaging plane that transected both tumors was chosen for DCE imaging.
A dual-Gd-bolus DCE-MRI acquisition strategy (Christian et al., 2004) was employed, which uses a low dose of contrast agent to accurately acquire the undistorted Gd concentration vs. time curve in the blood pool and a higher dose of contrast agent to acquire the Gd concentration vs. time curve in the tumor with high signal-to-noise ratio, since Gd-DTPA is known to have signal saturation effects at high doses in the blood pool (Christian et al., 2004). […]

L3.6pl xenografts = test: Flow cytometry/FACS of tumor cell populations
Experimental: Day 10 tumors were injected with either Scr siRNA or Hrnr siRNA and excised 20 hours later. The tumors were immediately washed in PBS (+Mg/+Ca), minced with scalpels, treated with Collagenase Type II (Worthington Biochemical Corporation, Lakewood, NJ, USA; (2.0 mg/mL) serum-free DMEM, 100 minutes at 37° C.), and filtered through a 40 μm cell strainer. The cell suspension (filtrate) was incubated with the following antibody/dye panel for FACS; anti-CD45 AF488 (1:100; Biolegend, San Diego, CA, USA, 103121, clone 30-F11), anti-CD31 AF647 (1:100; Biolegend, 102415, clone 390), LIVE/DEAD violet stain (1:200; Thermo Fisher). Flow cytometry analysis was completed on the Cyan ADP LX (Beckman Coulter). Compensation and data analysis was completed using FlowJo software (Ashland, OR, USA). FACS was completed in the UVA flow cytometry core on the Influx cell sorter (BD Biosciences, Franklin Lakes, NJ, USA).

[1] = L3.6pl tumors, RAVE, vs Scr siRNA
[2] = four-group combination experiment, vs control

**Q.** Which results are given for “5′-GCAUGGAUCUUGUUGCGGUTT-3′ [Hrnr siRNA]”?
**A.** increase in ACTA2 coverage of vessels (tumor vessels; ACTA2-positive pixels / CD34-positive pixels, vs Scr siRNA): 2.3 fold; number of vessels per field (tumor vessels; CD34-positive vessels per 0.4 mm^2 field, vs Scr siRNA): not different; fractal dimension (tortuosity) (tumor vessels; [1]): reduced; vessel radius (tumor vessels; [1]): overall reduction in vessel radius; vessel volume fraction (VVF) (tumor vessels; [1]): reduced; number of vessels per field (tumor vessels; [2]): no change in the number of vessels per field; vessel radii (tumor vessels; [2]): smaller radii; tumor concentration of Gd-DTPA (tumor vascularity; after 6 days of siRNA injection every other day, vs Scr siRNA): two-fold reduced; reduction in Ktrans (tumor vascularity; after 6 days of siRNA injections, vs control): 2.4 fold; proportion of leukocytes (CD45+/CD31- cells) (L3.6pl xenografts; FACS of tumor cell suspensions): not altered; proportion of endothelial cells (CD31+/CD45-) (L3.6pl xenografts; FACS, vs Scr siRNA): not different
